Measured values as given in PubChem BioAssay (NCI).
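Growth conditions: 96-well plates. Treatment: test compound, 48 hours, 5 concentrations. Analysis: linear interpolation between bracketing concentrations; unreached endpoints set to highest concentration. TGI marks complete inhibition of growth.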

How the values were obtained:
Assay in all cases: inhibition of tumour cell growth, NCI panel, 48 h
[1] = test system: SF-539 CNS
[2] = test system: UACC-62 melanoma
[3] = test system: OVCAR-5 ovarian
[4] = test system: HCT-15 colon
[5] = test system: COLO 205 colon
[6] = test system: RXF 393 renal
[7] = test system: MOLT-4 leukemia
[8] = test system: MALME-3M melanoma
[9] = test system: LOX IMVI melanoma
[10] = test system: SK-OV-3 ovarian
[11] = test system: UO-31 renal
[12] = test system: UACC-257 melanoma
[13] = test system: OVCAR-3 ovarian
[14] = test system: MDA-MB-435
[15] = test system: HCT-116 colon
[16] = test system: HOP-62 NSCLC
[17] = test system: U251 CNS
[18] = test system: A549 NSCLC
[19] = test system: SNB-75 CNS

Row | SMILES | TGI [1] [µM] | TGI [2] [µM] | TGI [3] [µM] | TGI [4] [µM] | TGI [5] [µM] | TGI [6] [µM] | TGI [7] [µM] | TGI [8] [µM] | TGI [9] [µM] | TGI [10] [µM] | TGI [11] [µM] | TGI [12] [µM] | TGI [13] [µM] | TGI [14] [µM] | TGI [15] [µM] | TGI [16] [µM] | TGI [17] [µM] | TGI [18] [µM] | TGI [19] [µM]
1 | Clc1ccc(/C=c2\nc(-c3ccccc3)n3c2nc2ccccc23)cc1 | 52.2 | > 100 | > 100 | > 100 | > 100 | > 100 | > 100 | > 100 | > 100 | > 100 | > 100 | > 100 | > 100 | > 100 | > 100 | > 100 | > 100 | > 100 | –
2 | O=C1CC(C(O)C(O)C(O)CO)CC(=O)N1 (centres undefined) | > 100 | – | > 100 | > 100 | > 100 | > 100 | > 100 | > 100 | > 100 | – | > 100 | > 100 | > 100 | > 100 | > 100 | > 100 | > 100 | > 100 | > 100
3 | CCOC(=O)C1C(c2ccco2)C2(C#N)C(=N)OC1(C)C2(C#N)C#N (centres undefined) | > 100 | > 100 | > 100 | > 100 | > 100 | > 100 | > 100 | > 100 | > 100 | > 100 | > 100 | > 100 | – | > 100 | > 100 | – | > 100 | > 100 | > 100
4 | [N-]=[N+]=CC(=O)OC1CCc2ccccc21 (centres undefined) | – | > 100 | > 100 | > 100 | > 100 | > 100 | – | > 100 | > 100 | > 100 | 29 | > 100 | > 100 | > 100 | > 100 | > 100 | > 100 | – | –
5 | COc1ccc2c(c1)OCC1=C2Oc2ccccc2C1 | 95.7 | > 100 | 88.8 | > 100 | 49.2 | – | 85.5 | > 100 | 55.9 | > 100 | > 100 | 87.6 | > 100 | 84.2 | > 100 | > 100 | > 100 | > 100 | 42.5
6 | O=C1c2ccccc2-c2nc(-c3cccs3)cc3c2c1nc1ccccc13 | > 100 | 19.3 | > 100 | 57.1 | 37.5 | – | > 100 | 23.1 | 35.9 | > 100 | > 100 | 37.3 | 9.39 | 4.51 | 42.2 | 77.6 | > 100 | 63.5 | > 100
7 | CC(C)C(C)C(O)C(O)C(C)C1CCC2C3COC(=O)C4CC(O)C(O)CC4(C)C3CCC12C (centres undefined) | > 100 | > 100 | > 100 | > 100 | > 100 | 67.4 | 59.1 | > 100 | > 100 | > 100 | > 100 | > 100 | – | > 100 | > 100 | – | > 100 | > 100 | –
8 | CSC1=C(C(=O)N(COCC[Si](C)(C)C)c2ccccc2Br)CCC(C(C)(C)C)C1 (centres undefined) | – | 39.9 | 28.7 | 26.1 | 25.7 | 23.1 | 21.9 | 46.4 | 29.2 | > 100 | 27 | 47.8 | 24.4 | > 100 | 18.3 | 53.2 | 24 | > 100 | > 100
9 | CC(=O)N(CN1C(=O)CCC1C(=O)O)c1ccc(C)cc1 (centres undefined) | > 100 | > 100 | > 100 | > 100 | > 100 | – | > 100 | > 100 | > 100 | > 100 | > 100 | > 100 | > 100 | > 100 | > 100 | > 100 | > 100 | > 100 | > 100
10 | O=C(O)COc1cc(-c2ccccc2F)nc2cc3c(cc12)OCO3 | > 100 | > 100 | > 100 | > 100 | > 100 | > 100 | > 100 | > 100 | > 100 | > 100 | – | > 100 | > 100 | > 100 | > 100 | > 100 | > 100 | > 100 | > 100
11 | CC1(C)CC(=O)c2c([nH]c(=S)c(C#N)c2-c2ccc(Br)cc2)C1 | > 100 | > 100 | > 100 | > 100 | – | > 100 | – | > 100 | > 100 | > 100 | > 100 | > 100 | > 100 | > 100 | > 100 | > 100 | > 100 | > 100 | > 100
12 | COC(=O)c1c(O)ccc2c1c1cc3ccccc3c(O)c1n2Cc1ccccc1Cl | 33.7 | 65.4 | > 100 | 77.1 | 30.4 | > 100 | > 100 | 74.7 | – | 48.6 | 64.1 | > 100 | 39.8 | 40.3 | 28 | 59.3 | > 100 | > 100 | –
13 | C=C1CC(COc2ccc3c(C)c(Cl)c(=O)oc3c2)(c2ccccc2)OC1=O (centres undefined) | 7.34 | 3.53 | 25.9 | 5.13 | 1.83 | – | – | 3.75 | 2.82 | 16.2 | 12.5 | 4.01 | 6.71 | 7.6 | 2.42 | 20.3 | 20.4 | 27.9 | 11.7
